What was measured:
Format in all cases: cell-based
[1] = system: CD74; assay: CD74 phospho-serine sandwich ELISA; conditions: H-89 20 μM; RO-31-2880 10 μM; COS-7/CD74+CD44
Experimental: (§1) FIGS. 12A-12E show the phosphoserine content of CD74 and CD44 measured by ELISA. […] The ELISA values represent the mean±SD of triplicate measurements. Experiments were replicated twice. *P<0.02 versus corresponding control (Student's T test, two-tailed). […] Cell lysates were prepared and probed for PKA and PKC using phospho-specific, and total anti-PKA and anti-PKC antibodies.
The observation that the phosphoserine content of CD74 increased only in cells that expressed CD74 and full-length CD44 is consistent with the notion that the MIF-mediated phosphorylation of CD74 is dependent on the activity of the CD44 intracytoplasmic domain.
(§2) The serine phosphorylation of CD74 and CD44 was quantified by specific sandwich ELISA (Perez et al. (2003). Nature Immunol 4:1083-92). […] After several washes (0.5% Tween-20 in PBS), 0.2 μg/ml anti-phospho-serine antibody (Hypromatrix) conjugated with horseradish peroxidase was added, and immunoreactivity measured by the TMB reagent (DakoCytomation) and the data analyzed with SpectraMax Plus (Molecular Devices).
Cell lysates were collected and analyzed by immunoblots using a pair of anti-phospho-PICA and anti-(total)-PKA antibodies, a pair of anti-phospho-PKC (all from Cell Signaling) and anti-(total)-PKC (Santa Cruz) antibodies, or a pair of anti-phospho-p56^lck (Cell Signaling) and anti-(total) p56^lck (sc-433, Santa Cruz) antibodies.

[2] = system: CD44; assay: CD44 phospho-serine sandwich ELISA; conditions: H-89, 20 μM; RO-31-2880, 10 μM
Experimental: as §1
Ser325 is constitutively phosphorylated in resting cells, but undergoes de-phosphorylation in response to PKC activating stimuli such as phorbol esters. […] The effect of MIF-stimulation CD44 phosphorylation was analyzed in the COS-7 and MEF cell lines by sandwich ELISA using an anti-CD44 capture antibody to quantify CD44 phospho-serine residues (Perez et al. (2003). Nature Immunol. 4:1083-92). […]
as §2, with “Devices). […]” for “Devices).”

[3] = system: ERK-1/2; assay: ERK-1/2 phosphorylation in COS-7/M6 stable transformants (Western blot); conditions: 20 nM; COS-7/CD74+CD44 cell line or primary macrophages
[4] = system: murine bone marrow progenitor cultures; assay: BFU-E and CFU-E erythropoietin-dependent progenitor colony assays; conditions: 10-100 ng/ml MIF, 1-20 ng/ml TNFα, or 10-100 U/ml IFNγ
Experimental: Bone marrow cells were harvested, plated in a methylcellulose-based medium, and colony numbers scored after the addition of murine cytokines. Individual assays were performed in duplicate, and the data shown is a compilation of 3-6 independently performed experiments. % inhibition of colony formation is calculated with reference to a cytokine-minus control. All values shown are the mean±SD and are significant when compared to wells with no cytokine addition (P<0.05). CFU-E: colony forming unit—erythroid; BFU-E: burst-forming unit—erythroid.
The two inflammatory cytokines, TNFα and IFNγ, were also studied. TNFα and IFNγ are produced as a consequence of macrophage and T cell activation (McDevitt et al. 2004. Curr Hematol Rep 3:97-106). The appearance of BFU-E and CFU-E were quantified after culture with these cytokines, applied either alone or in combination.
BFU-E and CFU-E Progenitor Cell Assays. The progenitor cell (colony) assays were performed according to the standardized methods described previously (Martiney et al. 2000. Infection and Immunity 68:2259-2267) and protocols from StemCell Technologies (Vancouver; BC, Canada). Briefly, washed murine bone marrow cells were plated in sterile 35-mm dishes containing a methylcellulose-based medium and growth factors. The total number of bone marrow cells plated in duplicate culture dishes were as follows: 2×10^5 for CFU-E and 5×10^5 for BFU-E. MethoCult™ M3334 was utilized for the CFU-E and BFU-E colony assays. The media for CFU-E and BFU-E was volume adjusted by adding 1 part Isocove's MDM to 9 parts MethoCult™ M3334 to give final concentrations of the following components: 15% fetal bovine serum, 1% BSA, […] transferrin, […] insulin, 1% methylcellulose, 10^−4 M 2-mercaptoethanol, 2 mM L-glutamine and 3 units/ml erythropoietin. Each assay of different bone marrow progenitor cells was performed independently 3-6 times.

[5] = system: HIV-1ADA; assay: HIV-1 replication in monocyte-derived macrophage cultures (RT activity); conditions: polymyxin B 10 μg/ml added to MIF 50 ng/ml
Experimental: (§3) Triplicate cultures of monocyte-derived macrophages were infected with HIV-1ADA in the presence of anti-MIF MAb (25 μg/ml) or isotype control. Virus replication was monitored by RT activity in culture supernatants. Results are presented as mean±SD. […] Control cultures were cultivated with PMB mixed with an isotype immunoglobulin with or without MIF.
as §3, with “To investigate this possibility, HIV-infected macrophages were cultured in the presence of a neutralizing anti-MIF antibody or isotype control. Triplicate” for “Triplicate”, “supernatants.” for “supernatants. Results are presented as mean±SD.”

O=S(=O)(NCCNC/C=C/c1ccc(Br)cc1)c1cccc2cnccc12 [H-89, reference compound]
MIF stimulation of CD74 phosphorylation in presence of kinase inhibitor [1]: decreased markedly | serine phosphorylation of CD44 after MIF stimulation in presence of kinase inhibitor [2]: reduced by PKA inhibition

COc1c(C=O)c(O)cc2c1C(=O)c1ccccc1C2=O [damnacanthal, reference compound]
phosphorylation of ERK1/2 [3]: inhibition of the phosphorylation of p56^lck and ERK1/2

TNFα
BFU-E and CFU-E colony formation [4]: dose-dependently inhibited

polymyxin B [reference compound]
inhibitory effect of MIF on viral replication [5]: did not significantly reduce the inhibitory effect of MIF

B1: IFNγ: Recombinant mouse IFN-γ from R&D Systems (protein, UniProt P01580 23-155, looked up)
Interferon gamma: HGTVIESLESLNNYFNSSGIDVEEKSLFLDIWRNWQKDGDMKILQSQIISFYLRLFEVLKDNQAISNNISVIESHLITTFFSNSKAKKDAFMSIAKFEVNNPQVQRQAFNELIRVVHQLLPESSLRKRKRSRC
BFU-E and CFU-E colony formation [4]: dose-dependently inhibited
